The values below come from PMC7308271, “Discovery of a new class of orthosteric antagonists with nanomolar potency at extrasynaptic GABAA receptors” (Scientific Reports, 2020).

As a reminder, the IC50 is the concentration at which inhibition is half-maximal. By inhibition is commonly meant the drop in the measured response relative to a control, in per cent.

Experiment [1] concerns tonic currents in dentate gyrus granule cells. The settings on record: rat slice recordings, cited from earlier work.
Experiment [2] deals with T1, human BGT1 (Homo sapiens, UniProt P48065).
T1 construct: expressed in transfected cells; host or cells: δ-HEK cells, transient transfection (pcDNA5/FRT)
T1 sequence (P48065 1-614): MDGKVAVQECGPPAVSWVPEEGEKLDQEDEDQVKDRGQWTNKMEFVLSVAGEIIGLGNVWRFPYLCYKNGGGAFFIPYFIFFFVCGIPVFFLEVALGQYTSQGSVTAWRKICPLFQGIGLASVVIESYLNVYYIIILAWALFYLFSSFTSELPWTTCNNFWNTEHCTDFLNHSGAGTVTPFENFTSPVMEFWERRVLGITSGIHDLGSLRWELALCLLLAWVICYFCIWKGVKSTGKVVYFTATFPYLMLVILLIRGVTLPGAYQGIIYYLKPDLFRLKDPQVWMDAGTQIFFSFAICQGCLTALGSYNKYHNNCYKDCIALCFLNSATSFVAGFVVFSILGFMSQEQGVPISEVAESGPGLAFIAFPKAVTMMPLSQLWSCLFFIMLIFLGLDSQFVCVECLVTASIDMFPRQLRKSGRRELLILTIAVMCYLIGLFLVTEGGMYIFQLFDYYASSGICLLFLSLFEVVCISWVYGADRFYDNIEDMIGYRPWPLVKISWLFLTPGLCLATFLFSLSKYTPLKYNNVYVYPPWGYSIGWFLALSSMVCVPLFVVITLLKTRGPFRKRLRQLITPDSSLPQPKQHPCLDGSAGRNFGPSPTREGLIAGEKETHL
The experiment is described as follows: Fluorescence interference control: BGT1-mediated GABA uptake in the FMP assay. It is filed as cell-based. The settings on record: 110 μM GABA uptake by BGT1 in δ-HEK cells; 2027 at 30, 10, 3 μM. From the text: (§1) To express recombinant GABAΑ receptors human α1, α2, α3, α5, α6, β2, γ2 (pcDNA3.1/Zeo) and α4, β1 (pUNIV)[26] subunit cDNA were transiently transfected into either δ-HEK or HEK background cells. δ-HEK cells were transfected with α- and β-subunits in a 1:1 ration whereas HEK background cells were transfected with α-, β- and γ-subunits in a 1:1:2 ratio. Human BGT1 (pcDNA5/FRT)[43] was transiently transfected into the δ-HEK cell line. δ-HEK cells transfected for whole-cell patch-clamp recordings were co-transfected with green fluorescent protein (GFP) as well as α- and β-subunits in a 0.5:1:1 ratio (0.8 μg + 1.6 μg + 1.6 μg in a 6 cm dish) in order to identify transfected cells. The transfection was carried out using Polyfect as transfection reagent according to the manufactures protocol expect for using half the recommended volume of Polyfect.
assay (perf ormed essentially as previously described in methods section and based on Al-Khawaja et al.).
in d-HEK cells was not decreased/quenched by 2027 in any of the tested concentrations. Data are shown as
means ± SD f rom a representative expe riment perf orme d in triplicate (n=2).
BGT1 expressed in HEK-δ cells

The target in experiment [3] is T2, human α4β1δ GABAΑ receptor (Homo sapiens, UniProt P18505+P48169).
T2 construct: expressed in transfected cells; host or cells: δ-HEK (HEK293 Flp-In stably expressing human δ), transiently transfected with α4 and β1 1:1
The experiment is described as follows: FMP assay at α4β1δ GABAA receptors in HEK cells (screening, concentration-inhibition, Schild analysis). The class given is cell-based. The settings on record: HEK293, read-out: inhibition of the GABA EC80 signal, primary screening, 10 μM, singlicates.
Source text: We have previously established a FLIPR membrane potential (FMP) assay to study recombinant δ-containing GABAΑRs entailing a HEK293 Flp-In cell line stably expressing the human δ-subunit which is suitable for co-transfection with any desired α/β subunits. Initially, we validated the applicability of the FMP assay for efficient compound screening in 96-well microtiter plates using the human α4β1δ GABAΑR heterologously expressed in HEK cells. This receptor was chosen as we have previously shown this system to be reliable in expressing δ-containing receptors. To this end, we determined the Z′-factor, which is a statistical factor used to measure the suitability of an assay for high throughput screening.
Thus, we went on to further characterize 2027 by making a full concentration-inhibition curve.
HEK293 cells were maintained in DMEM containing GlutaMAX-I, supplemented with 10% FBS and 1% penicillin-streptomycin and incubated at 37 °C and a humidity of 5% CO2. For expression of δ-containing GABAΑ receptors, a HEK293 Flp-In^ΤΜ cell line stably expressing the human GABAΑ δ-subunits (referred to as δ-HEK) was used and the γ-containing subtypes was expressed in a background HEK293 Flp-In^ΤΜ cell line stably expressing the G-protein coupled peptide receptor NPBWR2 (referred to as HEK background)[26], both positively selected for using 200 μg/mL hygromycin B. α1β2γ2 receptors were stably expressed in a HEK293 cell line maintained as above but with no selection (gift from Marianne L. Jensen, Neurosearch).
as §1
The FMP assay was performed as previously described with a few modifications. Briefly, HEK cells were transfected as described[26] and 16–20 hours later plated (50,000 cells/well in DMEM medium) into clear-bottomed black 96-well plates coated with poly-D-lysine and the assay performed 20–28 hours later. The assay protocol including the FMP blue dye incorporation into membranes was exactly as described in Falk-Petersen et al.[26]. […] Data was obtained as changes in fluorescence units (∆RFU) by measuring emission at 560 nm caused by excitation at 530 nm. Unless otherwise mentioned in the text or figure legends experiments were performed in at least three independent experiments each using three technical replicates.
Data obtained in the FMP assay are given as relative changes in fluorescence units (ΔRFU) by subtracting the average of the baseline fluorescence signal from the peak fluorescence signal after compound addition. All raw traces were inspected manually and peak signals resulting from compound/buffer addition together with signal artefacts were omitted from the analysis.
The concentration-response curves obtained in the FMP assay for both agonists (determining EC50 values) and antagonists (determining IC50 values) were fitted using the four-parameter concentration-response model: Response=bottom+top−bottom/1+10^[(logEC50-A)⋅nH] EC/IC50 values describe the concentration resulting in the half-maximal response (halfway between top and bottom), and nΗ is the Hill coefficient.

Each structure is given as a SMILES string. Some results are limits rather than exact numbers.

T2 sequence (P48169 36-554): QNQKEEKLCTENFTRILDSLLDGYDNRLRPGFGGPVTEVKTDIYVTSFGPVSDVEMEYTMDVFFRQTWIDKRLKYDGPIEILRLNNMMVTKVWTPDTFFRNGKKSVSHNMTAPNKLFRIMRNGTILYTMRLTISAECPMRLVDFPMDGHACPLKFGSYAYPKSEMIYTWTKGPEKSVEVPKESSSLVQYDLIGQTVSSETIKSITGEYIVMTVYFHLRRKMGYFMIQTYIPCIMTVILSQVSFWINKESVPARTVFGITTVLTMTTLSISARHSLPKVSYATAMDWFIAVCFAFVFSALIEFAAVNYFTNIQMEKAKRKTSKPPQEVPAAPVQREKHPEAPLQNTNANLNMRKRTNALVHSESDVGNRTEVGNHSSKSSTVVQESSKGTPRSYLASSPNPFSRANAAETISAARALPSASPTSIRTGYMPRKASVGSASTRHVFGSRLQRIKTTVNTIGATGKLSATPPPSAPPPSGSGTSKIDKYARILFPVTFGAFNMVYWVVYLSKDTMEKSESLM
T2 sequence (P18505 26-474): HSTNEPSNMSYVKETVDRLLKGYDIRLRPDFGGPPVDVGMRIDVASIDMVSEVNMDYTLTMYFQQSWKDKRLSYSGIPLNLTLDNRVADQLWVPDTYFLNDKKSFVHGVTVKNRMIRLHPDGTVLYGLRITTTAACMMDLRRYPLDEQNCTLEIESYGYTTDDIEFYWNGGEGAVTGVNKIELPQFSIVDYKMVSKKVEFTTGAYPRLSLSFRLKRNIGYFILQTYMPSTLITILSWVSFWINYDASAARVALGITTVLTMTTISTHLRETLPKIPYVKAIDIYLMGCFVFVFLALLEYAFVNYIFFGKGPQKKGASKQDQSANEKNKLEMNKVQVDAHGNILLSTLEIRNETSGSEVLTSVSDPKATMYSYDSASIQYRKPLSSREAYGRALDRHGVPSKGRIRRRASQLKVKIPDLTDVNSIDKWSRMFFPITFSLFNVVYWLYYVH
T2 sequence (O14764 25-452 partner): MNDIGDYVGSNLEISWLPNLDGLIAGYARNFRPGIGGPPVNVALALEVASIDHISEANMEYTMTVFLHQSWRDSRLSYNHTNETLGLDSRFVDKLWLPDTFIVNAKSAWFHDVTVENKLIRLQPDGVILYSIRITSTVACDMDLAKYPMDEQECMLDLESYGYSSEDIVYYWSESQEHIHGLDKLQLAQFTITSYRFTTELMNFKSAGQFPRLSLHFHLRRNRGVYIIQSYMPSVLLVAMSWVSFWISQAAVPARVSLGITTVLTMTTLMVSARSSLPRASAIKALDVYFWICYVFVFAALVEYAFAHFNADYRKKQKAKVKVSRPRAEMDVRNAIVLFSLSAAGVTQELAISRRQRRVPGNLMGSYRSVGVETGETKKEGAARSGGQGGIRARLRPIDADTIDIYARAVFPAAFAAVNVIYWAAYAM

Regarding `Oc1noc(C2CCNCC2)c1CCC(c1ccccc1)c1ccccc1` [DPP-4-PIOL], in experiment [1] (read-out: IC50 inhibiting tonic currents), the IC50 is 870 pM. For the same compound, the “potency in inhibiting tonic over phasic currents” value in experiment [1] is given as “approximately 20 times”.
Consider `COc1ccc(-c2ccc(=N)n(CCCC(=O)O)n2)cc1` [Gabazine, reference compound], for which, in experiment [2], the “interference with / quenching of the fluorescence signal” value is listed as “do not interfere”.
On to `COc1ccccc1NC(=O)C1CCN(Cc2ccco2)CC1` [compound 2100, 1-(furan-2-ylmethyl)-N-(2-methoxyphenyl)piperidine-4-carboxamide], for which, in experiment [3], the inhibition at 10 µM was above 50%.
